In brackets after ≈: the same amount, converted by molar mass. Where two headings read alike, the source gives them in different places.
System: Spodoptera littoralis
Experiment: Insecticidal bioassay screening (castor leaf dip, larval mortality)
Type: in vivo
Conditions: for Toxic ratio: 72 h, fenoxycarb's LC50 / compound's LC50 × 100
Method: Five concentrations (200, 100, 50, 25, 12.5 ppm) were designed for this synthetic compound and the reference fenoxycarb compound as the dynamic ingredients based on ppm via diluting the commercial formulation.
In this experiment, castor leaves are immersed in each of the previously prepared concentrations of the components for 10 seconds and then left to dry for 60 minutes. Larvae of the second and fourth instars of each checked strain are prepared with treated leaves in gauze-covered glass containers for 72 hrs. An untreated control is made in which leaves are dipped in triton x-100 and distilled water only. Then the preserved leaves were removed & fresh, untreated leaves were provided for 72 hours. Three replicates (10 larvae each) were checked for each concentration. Daily inspection was carried out for all treatments and mortality percentages were recorded 3 days (72 hours) after treatment. The average mortality percentage was corrected employing Abbott's formula. The corrected mortality rate for each of the previously synthesized compounds is statistically calculated according to Finney (1970). Through this rate, the corresponding concentration test lines (LDP lines) are assessed. Fifty and ninety percent mortality are determined, and the regression values for the checked products were previously evaluated.

[1] = 2nd instar larvae of S. littoralis, after 72 h of treatment
[2] = 4th instar larvae of S. littoralis, after 72 h of treatment

Compound | LC50 [1] [ppm] | LC50 (2nd instar larvae of S. littoralis, after 72 h of treatment, listed as 1,3-bis(naphthalen-2-yloxy)propan-2-one) | Toxic ratio (2nd instar larvae) | LC50 [2] [ppm] | LC50 (4th instar larvae of S. littoralis, after 72 h of treatment, listed as 1,3-bis(naphthalen-2-yloxy)propan-2-one) | Toxic ratio (4th instar larvae) | activity against Spodoptera littoralis (in words) (compared with reference insecticide fenoxycarb) | LC50 (foliar, against Spodoptera littoralis under laboratory conditions (instar not given), read-out: LC50) [µg/mL] | LC50 (Spodoptera littoralis, foliar) [µg/mL]
O=C(COc1ccc2ccccc2c1)COc1ccc2ccccc2c1 [Compound 4, 1,3-bis(naphthalen-2-yloxy)propan-2-one] | 38.69 | about 38.69 ppm | 7.0 | 86.921 | about 86.921 ppm | 49.7 | active | 38.7 (≈ 113 µM) | –
CCOC(=O)NCCOc1ccc(Oc2ccccc2)cc1 [Fenoxycarb, reference compound] | 2.73 | – | 100 | 43.231 | – | 1 | – | – | 2.73 (≈ 9.06 µM)
